Laboratory results published in ChEMBL document CHEMBL1201862, “PubChem BioAssay data set” (2004).
Calls of active or inactive are those of the source.

Key:
[1] = microbe, parasite or virus in culture; type: functional; conditions: Mycobacterium tuberculosis
[2] = tested on: INS1; assay: beta cell apoptosis inhibitors, cytokine rescue, dose response, luminescence, retest (AID 449756); type: functional, cell-based; conditions: Rattus norvegicus;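 further: cell death triggered by IL-1 beta plus TNF-alpha plus IFN-gamma mixture; protective hits raise ATP signal compared with cytokine alone wells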
[3] = Luminescence Cell-Based Dose Retest to Confirm Inhibitors of Cancer Stem Cells. [Related pubchem assays (depositor defined):AID2717, AID2721]; type: functional; conditions: Homo sapiens
[4] = biological target: Heat shock protein HSP 90-alpha (Homo sapiens, UniProt P07900); type: functional, organism-based
[5] = inhibitors of intracellular T. cruzi replication, confirmation, NIH3T3 host cells, beta-gal luminescence (AID 2044); type: functional, cell-based;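 further: intracellular parasites grown in NIH/3T3 mouse fibroblasts as host cells; luminescent beta-galactosidase reporter signal from transgenic T. cruzi replicating inside host cells; inhibitors lower the luminescence signal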
[6] = cytotoxicity toward NIH3T3 fibroblasts, dose response, counter-screen, cell-based, ATP luminescence, mouse fibroblasts (AID 2010); type: functional;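 further: cells exposed to compound for about 90 hours before reading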
[7] = biological target: Cytochrome P450 3A4 (Homo sapiens, UniProt P08684);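 further: CYP3A4 tested as one member of a cytochrome P450 panel screen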
[8] = biological target: Voltage-gated inwardly rectifying potassium channel KCNH2 (Homo sapiens, UniProt Q12809); conditions: Potency;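 further: confirmatory quantitative high-throughput screen measuring inhibition of hERG channel activity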
[9] = tested on: HEK293; assay: inhibitors of LMP1-driven NF-kB reporter, dose response, cell-based, HEK293, luciferase, cherry-pick (AID 588343); type: functional; conditions: Homo sapiens
[10] = HepG2 cell cytotoxicity, dose response, cytotoxicity control for Shn3 inhibitor project, CellTiter-Glo, cherry-picked (AID 624134); type: functional, cell-based
[11] = Shn3 3'UTR reporter inhibitors, dose response, cell-based, Clone20 osteoblasts, firefly luciferase, cherry-picked (AID 624132); type: functional;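 further: firefly luciferase luminescence from reporter carrying the Shn3 3'UTR in osteoblasts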
[12] = control 3'UTR Renilla luciferase suppression, dose response, counter-screen for Shn3 inhibitor project, cell-based, Clone20-Shn3RL, cherry-picked (AID 624133); type: functional
[13] = biological target: T1, Ubiquitin-conjugating enzyme E2 N (Homo sapiens, UniProt P61088); type: functional;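 further: Dose-response confirmation in a TR-FRET assay detecting UBC13-driven polyubiquitin chain formation, inhibition measured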
T1 sequence (P61088 whole entry): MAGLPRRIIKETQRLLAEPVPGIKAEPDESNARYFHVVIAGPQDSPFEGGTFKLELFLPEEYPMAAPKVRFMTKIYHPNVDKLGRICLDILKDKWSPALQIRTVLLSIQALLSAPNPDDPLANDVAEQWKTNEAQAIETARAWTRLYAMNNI

[14] = P. falciparum Dd2 growth inhibitors, dose response, SYBR Green, cherry-picked samples (AID 1159567); type: functional, cell-based
[15] = biological target: Cytochrome P450 2C9 (Homo sapiens, UniProt P11712)
[16] = biological target: Cytochrome P450 2D6 (Homo sapiens, UniProt P10635);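 further: CYP2D6 member of a cytochrome P450 panel assay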
[17] = THP-1 cell cytotoxicity, dose response, cytotoxicity control for Vif-APOBEC3G degradation inhibitor project, THP-1 cells (AID 1117359); type: functional; conditions: Human immunodeficiency virus 1, THP-1
[18] = biological target: T2, Cytochrome P450 1A2 (Homo sapiens, UniProt P05177);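 further: PubChem cytochrome P450 panel assay, CYP1A2 panel member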
T2 sequence (P05177 whole entry): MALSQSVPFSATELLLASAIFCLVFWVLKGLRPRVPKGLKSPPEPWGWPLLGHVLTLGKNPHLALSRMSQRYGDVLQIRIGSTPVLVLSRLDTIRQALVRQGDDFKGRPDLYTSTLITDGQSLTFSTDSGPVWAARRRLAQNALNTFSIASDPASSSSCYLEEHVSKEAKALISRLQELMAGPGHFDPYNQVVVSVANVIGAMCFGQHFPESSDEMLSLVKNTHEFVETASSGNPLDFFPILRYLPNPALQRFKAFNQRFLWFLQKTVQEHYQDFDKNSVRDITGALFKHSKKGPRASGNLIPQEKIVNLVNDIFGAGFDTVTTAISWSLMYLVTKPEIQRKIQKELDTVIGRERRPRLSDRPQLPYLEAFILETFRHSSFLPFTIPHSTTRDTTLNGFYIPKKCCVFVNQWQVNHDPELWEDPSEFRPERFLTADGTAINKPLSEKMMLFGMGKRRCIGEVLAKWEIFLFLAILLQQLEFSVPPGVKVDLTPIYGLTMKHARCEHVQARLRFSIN

[19] = tested on: Vero; assay: Vero cell cytotoxicity, cytotoxicity control for flavivirus capping enzyme inhibitors (AID 588742); type: functional; conditions: Chlorocebus sabaeus
[20] = HEp-2 cell cytotoxicity, dose response, cytotoxicity control for RSV inhibitor project, HTS (AID 2410); type: functional; conditions: human respiratory syncytial virus
[21] = biological target: Cytochrome P450 2C19 (Homo sapiens, UniProt P33261); assay: Cytochrome panel assay with activity outcomes. Panel member name: p450-cyp2c19 Compounds with AC50 equal or less than 10 uM are considered active; type: functional; conditions: read-out: AC50
Chain of Cytochrome P450 2C19 (P33261 whole entry): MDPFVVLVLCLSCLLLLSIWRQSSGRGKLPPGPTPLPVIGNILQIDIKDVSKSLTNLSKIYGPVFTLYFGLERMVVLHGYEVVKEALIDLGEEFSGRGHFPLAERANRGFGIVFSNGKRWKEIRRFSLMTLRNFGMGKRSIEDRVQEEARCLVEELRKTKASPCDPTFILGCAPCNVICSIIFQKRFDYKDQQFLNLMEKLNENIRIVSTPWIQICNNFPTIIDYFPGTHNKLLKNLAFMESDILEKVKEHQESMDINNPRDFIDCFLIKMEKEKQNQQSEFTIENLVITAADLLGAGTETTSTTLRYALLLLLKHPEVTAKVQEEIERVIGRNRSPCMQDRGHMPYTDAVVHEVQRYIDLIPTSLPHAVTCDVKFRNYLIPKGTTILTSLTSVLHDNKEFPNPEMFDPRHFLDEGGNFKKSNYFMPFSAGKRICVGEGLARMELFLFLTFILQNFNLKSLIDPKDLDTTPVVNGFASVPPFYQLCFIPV

Chain of Voltage-gated inwardly rectifying potassium channel KCNH2 (Q12809 whole entry): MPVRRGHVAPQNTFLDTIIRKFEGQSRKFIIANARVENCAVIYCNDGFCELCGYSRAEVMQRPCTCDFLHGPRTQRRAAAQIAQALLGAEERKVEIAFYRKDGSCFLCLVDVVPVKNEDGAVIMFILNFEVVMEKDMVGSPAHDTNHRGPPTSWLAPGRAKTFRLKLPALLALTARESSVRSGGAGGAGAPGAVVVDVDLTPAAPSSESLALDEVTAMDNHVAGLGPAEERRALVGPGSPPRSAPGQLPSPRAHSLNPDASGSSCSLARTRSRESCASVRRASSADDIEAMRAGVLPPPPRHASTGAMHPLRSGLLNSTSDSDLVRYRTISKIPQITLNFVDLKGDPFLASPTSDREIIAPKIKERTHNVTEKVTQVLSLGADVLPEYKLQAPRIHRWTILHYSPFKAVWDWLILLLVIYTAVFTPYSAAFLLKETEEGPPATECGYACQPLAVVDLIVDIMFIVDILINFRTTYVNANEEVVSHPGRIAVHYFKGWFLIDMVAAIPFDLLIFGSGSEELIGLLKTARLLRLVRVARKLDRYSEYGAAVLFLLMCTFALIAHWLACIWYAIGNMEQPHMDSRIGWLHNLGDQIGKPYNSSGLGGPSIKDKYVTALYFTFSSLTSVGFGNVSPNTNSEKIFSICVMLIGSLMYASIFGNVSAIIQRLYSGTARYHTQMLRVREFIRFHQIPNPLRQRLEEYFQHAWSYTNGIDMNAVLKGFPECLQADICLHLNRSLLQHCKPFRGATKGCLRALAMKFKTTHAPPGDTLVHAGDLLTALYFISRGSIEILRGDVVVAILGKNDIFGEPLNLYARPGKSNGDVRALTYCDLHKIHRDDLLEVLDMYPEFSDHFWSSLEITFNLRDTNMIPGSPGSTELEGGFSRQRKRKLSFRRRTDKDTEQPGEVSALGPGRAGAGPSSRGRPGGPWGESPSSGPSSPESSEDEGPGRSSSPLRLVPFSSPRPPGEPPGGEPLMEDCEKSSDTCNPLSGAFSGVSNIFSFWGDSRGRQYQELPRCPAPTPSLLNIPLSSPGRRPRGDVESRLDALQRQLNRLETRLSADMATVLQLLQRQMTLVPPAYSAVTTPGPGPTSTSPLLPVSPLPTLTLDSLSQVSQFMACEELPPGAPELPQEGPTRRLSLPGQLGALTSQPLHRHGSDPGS
Chain of Cytochrome P450 3A4 (P08684 whole entry): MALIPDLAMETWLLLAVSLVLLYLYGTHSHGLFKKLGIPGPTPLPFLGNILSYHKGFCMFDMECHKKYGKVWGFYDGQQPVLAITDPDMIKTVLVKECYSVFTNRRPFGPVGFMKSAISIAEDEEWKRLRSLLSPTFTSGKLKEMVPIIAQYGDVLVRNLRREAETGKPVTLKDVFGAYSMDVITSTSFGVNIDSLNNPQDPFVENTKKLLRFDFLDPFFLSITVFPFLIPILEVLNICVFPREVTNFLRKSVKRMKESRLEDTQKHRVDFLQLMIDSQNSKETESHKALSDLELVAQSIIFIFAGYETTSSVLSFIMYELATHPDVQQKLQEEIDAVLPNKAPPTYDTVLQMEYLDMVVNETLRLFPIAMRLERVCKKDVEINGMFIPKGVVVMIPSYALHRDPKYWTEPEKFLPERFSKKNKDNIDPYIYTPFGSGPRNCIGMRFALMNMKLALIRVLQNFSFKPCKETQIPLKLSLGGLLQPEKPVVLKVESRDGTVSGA
Chain of Cytochrome P450 2D6 (P10635 whole entry): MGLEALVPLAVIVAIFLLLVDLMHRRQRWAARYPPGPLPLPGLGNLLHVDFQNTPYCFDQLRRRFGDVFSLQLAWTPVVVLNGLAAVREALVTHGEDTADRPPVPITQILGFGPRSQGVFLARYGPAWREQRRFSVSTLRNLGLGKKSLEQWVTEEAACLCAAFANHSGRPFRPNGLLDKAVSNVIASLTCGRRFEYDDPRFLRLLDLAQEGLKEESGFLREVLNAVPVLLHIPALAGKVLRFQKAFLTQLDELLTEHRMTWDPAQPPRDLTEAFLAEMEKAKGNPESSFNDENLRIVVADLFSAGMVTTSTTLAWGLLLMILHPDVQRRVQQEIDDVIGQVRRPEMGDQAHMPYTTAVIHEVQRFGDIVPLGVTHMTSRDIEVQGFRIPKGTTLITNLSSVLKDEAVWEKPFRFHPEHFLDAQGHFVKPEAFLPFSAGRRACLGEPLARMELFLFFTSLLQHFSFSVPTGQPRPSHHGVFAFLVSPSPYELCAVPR
Chain of Cytochrome P450 2C9 (P11712 whole entry): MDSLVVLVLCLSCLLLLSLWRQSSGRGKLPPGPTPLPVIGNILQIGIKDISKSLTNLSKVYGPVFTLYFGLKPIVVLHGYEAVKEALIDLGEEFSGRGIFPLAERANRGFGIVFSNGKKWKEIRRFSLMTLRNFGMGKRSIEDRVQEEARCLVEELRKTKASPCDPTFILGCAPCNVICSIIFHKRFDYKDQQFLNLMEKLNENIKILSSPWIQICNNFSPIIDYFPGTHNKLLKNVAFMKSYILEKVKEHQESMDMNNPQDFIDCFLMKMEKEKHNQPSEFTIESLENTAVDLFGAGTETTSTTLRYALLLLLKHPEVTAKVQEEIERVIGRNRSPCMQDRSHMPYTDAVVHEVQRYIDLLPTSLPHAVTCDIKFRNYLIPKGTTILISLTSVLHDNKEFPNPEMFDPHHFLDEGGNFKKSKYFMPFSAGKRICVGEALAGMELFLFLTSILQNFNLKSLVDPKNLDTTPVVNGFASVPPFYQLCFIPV

Clc1ccc(C(Cn2ccnc2)OCc2csc3c(Cl)cccc23)c(Cl)c1 (stereo not given) [SERTACONAZOLE NITRATE]
CC50 [1]: 24.4 µM (active) | AC50 [2]: 10 µM (active) | AC50 [3]: 1.85 µM (active) | AC50 [4]: 0.233 µM (active)

N#Cc1c(N2CCN(C(=O)c3ccccc3Cl)CC2)nc(-c2ccccc2)c2c1CCCC2
EC50 [5]: 2.36 µM (active) | EC50 [6]: > 60 µM (not active) | AC50 [7]: inconclusive

CCCCOC(=O)COc1ccc(Cl)cc1Cl
AC50 [8]: 50.1 µM (inconclusive)

O=C1C2C3C=CC(CNS(=O)(=O)c4ccccc4)(O3)C2C(=O)N1c1ccc(Cl)cc1 (stereo not given)
AC50 [4]: 7.09 µM (active)

COc1ccc(NC(=O)c2sc3ncnc(N4CCN(c5ccccn5)CC4)c3c2C)cc1Cl
AC50 [9]: 11.6 µM (active) | AC50 [10]: > 70 µM (inactive) | AC50 [11]: 4.08 µM (active) | AC50 [12]: 3.19 µM (active) | AC50 [4]: 6.41 µM (active)

ClC1=C(Cl)C2(Cl)C3C(Cl)C=CC3C1(Cl)C2(Cl)Cl (stereo not given) [HEPTACHLOR]
AC50 [3]: 6.1 µM (active) | AC50 [8]: 31.6 µM (inconclusive)

CCOC(=O)c1c(CN2CCCCC2)oc2ccc(O)cc12
IC50 [13]: > 20 µM (inactive)

Cc1c(C(=O)O)c(O)cc2c1C(=O)c1c(O)c([C@H]3O[C@H](CO)[C@@H](O)[C@H](O)[C@H]3O)c(O)c(O)c1C2=O [CARMINE]
AC50 [8]: 79.4 µM (inconclusive)

COCCN1CSC(=S)N(Cc2ccco2)C1
AC50 [9]: 0.688 µM (active)

COc1ccc2c3c([nH]c2c1)[C@H](CO)N(Cc1ccccc1Cl)CC31CCN(C(C)=O)CC1
AC50 [14]: 2.8 µM (active)

CCCC(=O)Nc1ccc2c(c1)OC[C@H](C)N(Cc1ccc(-c3ccccn3)cc1)C[C@H](C)[C@H](OC)CN(C)C2=O
AC50 [14]: 4.66 µM (active)

CCCCOC1(c2ccccc2)OC(=O)c2ccccc21 (stereo not given)
AC50 [7]: inconclusive | AC50 [15]: 17.8 µM (inconclusive)

Cc1noc(C)c1C(=O)N1CCC2(CCN(C(=O)Nc3ccccc3)CC2)CC1
AC50 [7]: inconclusive | AC50 [16]: 12.6 µM (inconclusive)

Cc1cccc(OCCCC(=O)NNC(=O)c2ccccn2)c1
IC50 [13]: > 20 µM (inactive)

CCCCCCN(C(=O)CCCCCN1C(=O)NC(c2ccc(C(C)(C)C)cc2)C(C(=O)OCc2ccccc2)=C1C)C(C(=O)NCCCC)c1ccc(OCC(=O)OC)c(C(=O)OC)c1 (stereo not given)
CC50 [17]: 13.2 µM (active)

CCCNC[C@H]1[C@@H](c2ccc(C3=CCCCC3)cc2)[C@@H](CO)N1C(=O)C1CCC1
AC50 [14]: 4.2 µM (active)

CC[C@H](NC(=O)c1c(C)c(-c2ccccc2)nc2ccccc12)c1ccccc1 [SB-222200]
AC50 [8]: 35.5 µM (inconclusive)

CCCN(CCC)CCNC(=O)c1cc2c(=O)n(CC)c3ccccc3c2s1
IC50 [13]: > 20 µM (inactive)

CCCn1nnc(NC(=O)Cc2ccccc2)n1
AC50 [18]: 28.2 µM (inconclusive) | AC50 [7]: inconclusive | AC50 [15]: 0.00562 µM (inconclusive)

Cc1cccc(Nc2nc(-c3ccc(O)cc3O)cs2)n1
CC50 [19]: > 40 µM (active) | AC50 [3]: 6.88 µM (active) | CC50 [20]: 43.6 µM (active)

CC(C)N1CCN(c2ccc(OCC3COC(Cn4cncn4)(c4ccc(Cl)cc4Cl)O3)cc2)CC1 (stereo not given) [TERCONAZOLE]
AC50 [10]: 21.2 µM (active) | AC50 [11]: 52.1 µM (active) | AC50 [4]: 2.19 µM (active)

Sc1nnc(-c2ccco2)n1/N=C/C=C/c1ccco1
CC50 [19]: > 40 µM (active)

N#Cc1cccc(NC(=O)N2CC3(CCN(C(=O)c4cnccn4)CC3)C2)c1
AC50 [18]: 39.8 µM (inconclusive) | AC50 [7]: inconclusive

COc1ccc(-c2cc(C(=O)N(C)CC(=O)Nc3ccccc3Br)c3ccccc3n2)cc1OC
CC50 [17]: > 40 µM (active)

COc1ccc2c3c([nH]c2c1)[C@@H](CO)N(Cc1cc(F)ccc1F)CC31CCN(C(=O)C2CCC2)CC1
AC50 [14]: 3.77 µM (active)

CCc1ccc(C(=O)Nc2cccnc2Oc2ccc(Cl)cc2)cc1
CC50 [17]: 18.4 µM (active)

CCC/N=C/c1c(CCC)nn(-c2nc3ccccc3s2)c1O
AC50 [7]: inconclusive | AC50 [21]: 20 µM (inconclusive) | AC50 [16]: 25.1 µM (inconclusive)

COc1ccc(C#Cc2ccc([C@H]3[C@H]4CN(C(=O)Nc5ccccc5)CCCCN4[C@H]3CO)cc2)cc1
AC50 [14]: 4.8 µM (active)

O=[N+]([O-])c1ccc(CSc2ncnc3c2ncn3[C@@H]2O[C@H](CO)[C@H](O)[C@H]2O)cc1
AC50 [8]: 35.5 µM (inconclusive)
